Test results as given in US4062950A, “Amino sugar derivatives” (priority 1973, dated 1977).

Columns and labels:
starch digestion = assay: In vivo starch digestion inhibition (starch feeding test) in the fasting rat
saccharase [1] = biological target: T1, saccharase (Rattus norvegicus, UniProt P23739); assay: In vivo saccharase inhibition (sucrose overfeeding test) in the fasting rat
T1 construct: from tissue; host or cells: intestine of the living rat (endogenous enzyme)
Description: The produce an alimentary hyperglycemia and hyperinsulinaemia, groups of 6 fasting rats are given (a) 2.5 g of sucrose, (b) 2.5 g of maltose or (c) 1 g of boiled starch orally, in aqueous solution or suspension. Six other rats are given the same carbohydrates in the same amount and a glycoside hydrolase inhibitor in the amount indicated. In addition, six other rats are given an appropriate volume of saline. The blood glucose and the serum insulin are then measured at short intervals of time, in the blood from the retro-orbital venous plexus. Blood glucose determinations are carried out in the Auto-Analyser device (Technicon), according to Hoffmann: J. biol.

saccharase [2] = biological target: T2, saccharase (Sus scrofa, UniProt P56729); assay: In vitro saccharase test; format: biochemical, pig
T2 construct: sucrase subunit of the sucrase-isomaltase complex hydrolyses sucrose

pancreas-α-amylase = biological target: T3, pancreas-α-amylase (Sus scrofa, UniProt P00690); assay: In vitro amylase test; format: biochemical
T3 sequence (P00690 16-511): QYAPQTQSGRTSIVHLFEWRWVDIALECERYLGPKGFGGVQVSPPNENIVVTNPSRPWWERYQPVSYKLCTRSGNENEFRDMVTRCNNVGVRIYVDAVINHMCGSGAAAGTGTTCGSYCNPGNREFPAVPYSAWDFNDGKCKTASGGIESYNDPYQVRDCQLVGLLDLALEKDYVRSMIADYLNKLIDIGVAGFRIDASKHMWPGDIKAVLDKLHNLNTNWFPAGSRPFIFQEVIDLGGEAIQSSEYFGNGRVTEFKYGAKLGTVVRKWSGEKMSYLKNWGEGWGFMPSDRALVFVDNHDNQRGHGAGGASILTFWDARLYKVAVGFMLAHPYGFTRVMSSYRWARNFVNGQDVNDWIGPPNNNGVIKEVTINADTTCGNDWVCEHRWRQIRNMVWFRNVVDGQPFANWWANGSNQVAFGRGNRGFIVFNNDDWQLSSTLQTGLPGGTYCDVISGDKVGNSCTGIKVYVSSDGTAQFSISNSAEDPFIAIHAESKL
Description: One amylase inhibitor unit (1 AIU) is defined as the amount of inhibitor which inhibits two amylase units to the extent of 50%. One amylase unit (AU) is the amount of enzyme which under the test conditions specified below splits 1 μequivalent of glucoside bonds in the starch per minute. The μequivalents of split bonds are determined colorimetrically as μequivalents of reducing sugars formed, using dinitrosalicylic acid, and are quoted as μequivalents of maltose equivalents, using a maltose calibration curve. To carry out the test, 0.1 ml of amylase solution (20-22 AU/ml) are mixed with 0-10 μg of inhibitor or 0-20 μl of the solution to be tested in 0.4 ml of 0.02 M sodium glycerophosphate buffer/0.001 M CaCl2, pH 6.9, and the mixture is equilibrated for 10-20 minutes in a water bath at 35° C. The mixture is then incubated for 5 minutes at 35° C with 0.5 ml of a 1% strength starch solution which has been pre-warmed to 35° C (soluble starch No. 1,252 from Merck, Darmstadt), and thereafter 1 ml of dinitrosalicyclic acid reagent (according to P. bernfeld in Colowick-Kaplan, Meth. Enzymol., Volume l, page 149) is added. To develop the color, the batch is heated for 5 minutes on a boiling water bath and then cooled, and 10 ml of distilled water are added. The extinction at 540 nm is measured against a correspondingly made-up blank without amylase. […] The percentage inhibition is plotted as a function of the quotient [formula]

T1 sequence (P23739 1014-1841 limits assumed): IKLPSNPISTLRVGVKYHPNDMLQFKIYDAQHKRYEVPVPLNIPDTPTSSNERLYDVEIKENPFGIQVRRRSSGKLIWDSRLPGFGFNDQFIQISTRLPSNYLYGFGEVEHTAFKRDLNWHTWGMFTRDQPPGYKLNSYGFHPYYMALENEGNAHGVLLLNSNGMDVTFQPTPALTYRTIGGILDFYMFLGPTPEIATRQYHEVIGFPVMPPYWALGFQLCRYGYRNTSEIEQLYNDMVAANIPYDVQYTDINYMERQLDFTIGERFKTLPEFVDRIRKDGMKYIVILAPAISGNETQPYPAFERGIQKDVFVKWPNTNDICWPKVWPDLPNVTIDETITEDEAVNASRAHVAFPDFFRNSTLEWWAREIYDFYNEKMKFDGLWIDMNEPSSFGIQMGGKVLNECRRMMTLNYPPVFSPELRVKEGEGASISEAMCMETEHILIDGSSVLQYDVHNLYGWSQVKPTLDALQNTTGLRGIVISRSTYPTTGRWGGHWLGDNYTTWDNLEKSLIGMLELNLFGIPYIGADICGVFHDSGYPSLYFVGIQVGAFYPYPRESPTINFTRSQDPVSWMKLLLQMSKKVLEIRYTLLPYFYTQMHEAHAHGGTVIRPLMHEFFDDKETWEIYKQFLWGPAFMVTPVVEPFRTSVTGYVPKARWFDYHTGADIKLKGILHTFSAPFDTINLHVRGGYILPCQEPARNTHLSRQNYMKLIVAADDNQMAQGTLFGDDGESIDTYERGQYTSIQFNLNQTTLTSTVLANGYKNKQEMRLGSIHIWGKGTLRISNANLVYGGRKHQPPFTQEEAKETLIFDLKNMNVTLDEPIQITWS
T1 sequence (P23739 2-1013 partner limits assumed): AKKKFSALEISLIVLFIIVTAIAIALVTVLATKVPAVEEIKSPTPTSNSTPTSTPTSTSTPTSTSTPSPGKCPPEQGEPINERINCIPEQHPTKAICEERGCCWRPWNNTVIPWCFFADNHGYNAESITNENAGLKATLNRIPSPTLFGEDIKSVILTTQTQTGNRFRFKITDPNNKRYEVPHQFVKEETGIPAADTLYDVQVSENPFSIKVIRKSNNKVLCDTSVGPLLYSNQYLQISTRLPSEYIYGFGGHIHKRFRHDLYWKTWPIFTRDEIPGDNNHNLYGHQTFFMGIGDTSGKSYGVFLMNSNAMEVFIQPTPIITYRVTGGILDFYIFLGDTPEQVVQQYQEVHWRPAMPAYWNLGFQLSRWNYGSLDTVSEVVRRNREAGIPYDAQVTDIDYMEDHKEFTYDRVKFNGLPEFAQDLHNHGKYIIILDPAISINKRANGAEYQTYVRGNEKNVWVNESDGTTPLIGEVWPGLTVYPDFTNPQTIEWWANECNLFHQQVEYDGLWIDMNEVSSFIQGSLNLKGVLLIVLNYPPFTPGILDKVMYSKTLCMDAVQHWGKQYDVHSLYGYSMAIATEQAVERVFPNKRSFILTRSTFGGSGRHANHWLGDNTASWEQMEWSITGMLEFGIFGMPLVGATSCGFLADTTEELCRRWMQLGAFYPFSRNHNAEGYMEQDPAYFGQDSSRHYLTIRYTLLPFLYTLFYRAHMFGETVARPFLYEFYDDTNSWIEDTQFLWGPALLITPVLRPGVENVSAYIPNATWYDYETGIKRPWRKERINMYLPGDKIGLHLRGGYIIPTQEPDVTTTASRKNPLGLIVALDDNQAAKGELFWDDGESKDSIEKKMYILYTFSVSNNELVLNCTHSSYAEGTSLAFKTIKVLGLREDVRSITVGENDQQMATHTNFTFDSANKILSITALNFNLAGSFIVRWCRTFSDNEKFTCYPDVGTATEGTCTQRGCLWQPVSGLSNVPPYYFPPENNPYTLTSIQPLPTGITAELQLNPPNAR
T2 sequence (P56729 with tags, fused parts or gaps): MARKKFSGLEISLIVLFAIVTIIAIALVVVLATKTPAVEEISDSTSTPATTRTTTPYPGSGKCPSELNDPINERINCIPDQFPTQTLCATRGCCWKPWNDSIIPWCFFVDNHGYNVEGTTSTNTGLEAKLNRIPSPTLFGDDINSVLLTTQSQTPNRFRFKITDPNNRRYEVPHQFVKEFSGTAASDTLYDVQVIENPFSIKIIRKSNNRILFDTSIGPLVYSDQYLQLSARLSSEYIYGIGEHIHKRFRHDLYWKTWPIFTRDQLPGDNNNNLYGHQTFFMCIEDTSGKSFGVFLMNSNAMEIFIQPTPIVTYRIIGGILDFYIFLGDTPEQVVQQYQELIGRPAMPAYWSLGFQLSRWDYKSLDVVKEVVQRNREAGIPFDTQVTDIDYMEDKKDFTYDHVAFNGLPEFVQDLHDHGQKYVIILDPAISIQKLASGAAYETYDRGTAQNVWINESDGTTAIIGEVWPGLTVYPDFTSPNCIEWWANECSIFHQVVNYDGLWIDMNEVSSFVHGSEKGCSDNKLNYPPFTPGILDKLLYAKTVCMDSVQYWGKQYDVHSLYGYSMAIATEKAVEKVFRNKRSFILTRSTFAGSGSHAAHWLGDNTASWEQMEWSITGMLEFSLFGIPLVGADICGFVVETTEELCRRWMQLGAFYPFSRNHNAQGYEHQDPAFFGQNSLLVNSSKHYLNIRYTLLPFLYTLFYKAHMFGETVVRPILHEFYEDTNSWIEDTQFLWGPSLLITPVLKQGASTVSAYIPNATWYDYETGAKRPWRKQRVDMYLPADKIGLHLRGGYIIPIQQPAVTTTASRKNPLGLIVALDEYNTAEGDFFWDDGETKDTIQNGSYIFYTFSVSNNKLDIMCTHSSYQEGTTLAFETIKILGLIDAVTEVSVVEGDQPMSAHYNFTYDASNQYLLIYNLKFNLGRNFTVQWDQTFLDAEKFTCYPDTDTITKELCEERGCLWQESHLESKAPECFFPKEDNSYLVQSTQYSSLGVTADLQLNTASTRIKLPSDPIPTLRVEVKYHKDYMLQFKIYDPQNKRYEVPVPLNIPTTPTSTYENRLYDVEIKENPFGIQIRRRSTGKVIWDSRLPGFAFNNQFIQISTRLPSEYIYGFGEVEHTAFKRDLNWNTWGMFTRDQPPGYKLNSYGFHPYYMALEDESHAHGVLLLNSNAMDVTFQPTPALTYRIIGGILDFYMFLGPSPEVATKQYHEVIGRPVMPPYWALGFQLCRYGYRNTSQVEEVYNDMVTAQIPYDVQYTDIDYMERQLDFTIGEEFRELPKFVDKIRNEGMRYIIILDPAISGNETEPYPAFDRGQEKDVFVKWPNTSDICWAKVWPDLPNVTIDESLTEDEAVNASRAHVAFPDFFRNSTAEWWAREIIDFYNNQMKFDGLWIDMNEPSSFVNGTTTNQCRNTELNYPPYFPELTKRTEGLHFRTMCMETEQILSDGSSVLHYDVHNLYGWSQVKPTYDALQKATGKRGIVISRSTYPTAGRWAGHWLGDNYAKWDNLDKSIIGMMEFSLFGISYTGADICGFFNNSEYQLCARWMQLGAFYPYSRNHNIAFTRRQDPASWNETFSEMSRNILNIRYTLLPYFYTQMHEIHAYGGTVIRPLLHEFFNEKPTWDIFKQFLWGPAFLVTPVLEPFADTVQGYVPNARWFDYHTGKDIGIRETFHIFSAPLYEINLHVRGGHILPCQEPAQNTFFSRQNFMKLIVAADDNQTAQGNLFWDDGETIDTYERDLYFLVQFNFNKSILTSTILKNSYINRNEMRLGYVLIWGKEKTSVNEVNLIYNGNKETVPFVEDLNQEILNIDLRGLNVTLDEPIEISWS

Blood Glucose (Mean ± SD) (saccharase [1]; 2.5 g sucrose + 25 SIU oral, 15 Min.): 88 ± 11.4 mg%
Blood Glucose (Mean ± SD) (saccharase [1]; 2.5 g sucrose + 25 SIU oral, 30 Min.): 101 ± 12.0 mg%
Blood Glucose (Mean ± SD) (saccharase [1]; 2.5 g sucrose + 25 SIU oral, 45 Min.): 104 ± 7.4 mg%
Blood Glucose (Mean ± SD) (saccharase [1]; 2.5 g sucrose + 50 SIU oral, 15 Min.): 91 ± 9.4 mg%
Blood Glucose (Mean ± SD) (saccharase [1]; 2.5 g sucrose + 50 SIU oral, 30 Min.): 106 ± 7.0 mg%
Blood Glucose (Mean ± SD) (saccharase [1]; 2.5 g sucrose + 50 SIU oral, 45 Min.): 94 ± 9.0 mg%
Blood Glucose (Mean ± SD) (saccharase [1]; 2.5 g sucrose + 100 SIU oral, 15 Min.): 81 ± 7.2 mg%
Blood Glucose (Mean ± SD) (saccharase [1]; 2.5 g sucrose + 100 SIU oral, 30 Min.): 90 ± 8.0 mg%
Blood Glucose (Mean ± SD) (saccharase [1]; 2.5 g sucrose + 100 SIU oral, 45 Min.): 97 ± 1.6 mg%
ED50 (saccharase [1]; read-out: Saccharase Inhibition (ED50 mg/kg), ED50, sucrose, fasting rat, Table IV, read-out: Saccharase Inhibition In Vitro (ED50 mg/kg)): 2.65 mg/kg
Saccharase Inhibition (saccharase [2]; in vitro, Table II): 21,000 SIU/g
Saccharase Inhibition In Vitro (saccharase [2]; in vitro, Table IV): 21 SIU/mg
saccharase inhibiting activity of isolated product (saccharase [2]; product of the Examples): 21,000 SIU/g
α-Amylase Inhibition (pancreas-α-amylase; in vitro, Table II): 1,400,000 AIU/g
α-Amylase Inhibition In Vitro (pancreas-α-amylase; in vitro, Table VI): 1,400 AIU/mg
amylase inhibiting activity of isolated product (pancreas-α-amylase; isolated product of the Examples): 1.4 × 10^6 AIU/g
Structure (SMILES): C[C@H]1O[C@H](O[C@H]2[C@H](O)[C@@H](O)[C@@H](O[C@H]3[C@H](O)[C@@H](O)C(O)O[C@@H]3CO)O[C@@H]2CO)[C@H](O)[C@@H](O)[C@@H]1N[C@H]1C=C(CO)[C@@H](O[C@H]2O[C@H](CO)[C@@H](O)[C@H](O)[C@H]2O)[C@H](O)[C@H]1O (stereo partly drawn) [Formula V, O-{4,6-bisdesoxy-4-[1 S-(1,4,6/5)-4,5,6-trihydroxy-3-hydroxymethyl-4-O-α-D-glucopyranosyl-(1→4)-cyclohex-2-en-1-ylamino]-α-D-glycopyranosyl}-(1→4)-O-α-D-glucopyranosyl-(1→4)-D-glucopyranose]
Blood Glucose (Mean ± SD) (starch digestion; 1 g starch + 750 AIU oral, 5 Min.): 86 ± 8.5 mg%
Blood Glucose (Mean ± SD) (starch digestion; 1 g starch + 750 AIU oral, 10 Min.): 107 ± 5.0 mg%
Blood Glucose (Mean ± SD) (starch digestion; 1 g starch + 750 AIU oral, 15 Min.): 117 ± 8.7 mg%
Blood Glucose (Mean ± SD) (starch digestion; 1 g starch + 750 AIU oral, 20 Min.): 121 ± 12 mg%
Blood Glucose (Mean ± SD) (starch digestion; 1 g starch + 750 AIU oral, 30 Min.): 126 ± 11 mg%
Blood Glucose (Mean ± SD) (starch digestion; 1 g starch + 750 AIU oral, 45 Min.): 114 ± 3.6 mg%
Blood Glucose (Mean ± SD) (starch digestion; 1 g starch + 1,500 AIU oral, 5 Min.): 77 ± 14 mg%
Blood Glucose (Mean ± SD) (starch digestion; 1 g starch + 1,500 AIU oral, 10 Min.): 92 ± 9.6 mg%
Blood Glucose (Mean ± SD) (starch digestion; 1 g starch + 1,500 AIU oral, 15 Min.): 94 ± 9.5 mg%
Blood Glucose (Mean ± SD) (starch digestion; 1 g starch + 1,500 AIU oral, 20 Min.): 113 ± 9.7 mg%
Blood Glucose (Mean ± SD) (starch digestion; 1 g starch + 1,500 AIU oral, 30 Min.): 112 ± 8.8 mg%
Blood Glucose (Mean ± SD) (starch digestion; 1 g starch + 1,500 AIU oral, 45 Min.): 111 ± 4.2 mg%
Blood Glucose (Mean ± SD) (starch digestion; 1 g starch + 3,000 AIU oral, 5 Min.): 65 ± 5.6 mg%
Blood Glucose (Mean ± SD) (starch digestion; 1 g starch + 3,000 AIU oral, 10 Min.): 101 ± 3.3 mg%
Blood Glucose (Mean ± SD) (starch digestion; 1 g starch + 3,000 AIU oral, 15 Min.): 82 ± 11 mg%
Blood Glucose (Mean ± SD) (starch digestion; 1 g starch + 3,000 AIU oral, 20 Min.): 112 ± 4.5 mg%
Blood Glucose (Mean ± SD) (starch digestion; 1 g starch + 3,000 AIU oral, 30 Min.): 109 ± 6.4 mg%
Blood Glucose (Mean ± SD) (starch digestion; 1 g starch + 3,000 AIU oral, 45 Min.): 104 ± 2.5 mg%
ED50 (starch digestion; ED50, starch, fasting rat, Table VI): 1.61 mg/kg
in vivo inhibition of starch digestion, in words (starch digestion; compared with expectation from in vitro amylase inhibition): much higher than would be expected
